The subject of one data set is LNCaP. Put plainly: Cytotoxicity against human LNCaP cells. It counts as functional. To be noted: read-out: ED50 (the source's name).
Another data set has as its system Col2. In words: Cytotoxicity against human Col2 cells. The format is functional. To be noted: read-out: ED50 (the source's name).
Data set [1] in a line: Cytotoxicity against human Lu1 cells. The format is functional. To be noted: read-out: ED50 (the source's name).
Data set [2] concerns KB. In words: Cytotoxicity against human KB cells. As to conditions: read-out: ED50 (the source's name). The format is functional.
The next data set concerns Rattus norvegicus. Put plainly: Antiinflammatory activity in rat assessed as inhibition of the carrageenan-induced right hind paw edema at 0.1 mmol/kg. The format is functional. More on the design: scale not given: the % may be the effect or the level left.
In data set [3] the test system is Plasmodium falciparum. Put plainly: Antimalarial activity against chloroquine-resistant Plasmodium falciparum Dd2. The format is functional, organism-based.
Data set [4] deals with Plasmodium falciparum. Put plainly: Antimalarial activity against chloroquine-susceptible Plasmodium falciparum 3D7. It counts as functional, organism-based.
The target of a further data set is Cannabinoid receptor 2 (Homo sapiens, UniProt P34972). In words: Binding affinity to CB2 (unknown origin).
Chain of Cannabinoid receptor 2 (P34972 whole entry): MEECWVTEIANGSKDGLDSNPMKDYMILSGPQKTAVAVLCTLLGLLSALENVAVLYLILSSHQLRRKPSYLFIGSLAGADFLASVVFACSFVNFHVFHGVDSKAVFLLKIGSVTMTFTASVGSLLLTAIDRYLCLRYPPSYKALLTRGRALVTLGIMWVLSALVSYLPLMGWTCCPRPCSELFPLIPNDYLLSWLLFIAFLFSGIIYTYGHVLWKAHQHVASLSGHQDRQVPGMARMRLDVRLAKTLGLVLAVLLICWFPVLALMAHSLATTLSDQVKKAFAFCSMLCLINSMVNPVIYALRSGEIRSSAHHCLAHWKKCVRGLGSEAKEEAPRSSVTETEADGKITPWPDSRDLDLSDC
The subject of data set [5] is KB. Put plainly: Cytotoxicity against human KB cells assessed as inhibition of cell growth incubated for 72 hrs by neutral red dye based colorimetric assay. The format is functional.
Data set [6] deals with Acetylcholinesterase (Homo sapiens, UniProt P22303). In words: Inhibition of recombinant human AChE assessed as hydrolysis of acetylthiocholine by Ellman's method. On the technique in general: In Ellman's method for cholinesterases, released thiocholine reacts with DTNB.
Chain of Acetylcholinesterase (Homo sapiens, UniProt P22303) (P22303 whole entry): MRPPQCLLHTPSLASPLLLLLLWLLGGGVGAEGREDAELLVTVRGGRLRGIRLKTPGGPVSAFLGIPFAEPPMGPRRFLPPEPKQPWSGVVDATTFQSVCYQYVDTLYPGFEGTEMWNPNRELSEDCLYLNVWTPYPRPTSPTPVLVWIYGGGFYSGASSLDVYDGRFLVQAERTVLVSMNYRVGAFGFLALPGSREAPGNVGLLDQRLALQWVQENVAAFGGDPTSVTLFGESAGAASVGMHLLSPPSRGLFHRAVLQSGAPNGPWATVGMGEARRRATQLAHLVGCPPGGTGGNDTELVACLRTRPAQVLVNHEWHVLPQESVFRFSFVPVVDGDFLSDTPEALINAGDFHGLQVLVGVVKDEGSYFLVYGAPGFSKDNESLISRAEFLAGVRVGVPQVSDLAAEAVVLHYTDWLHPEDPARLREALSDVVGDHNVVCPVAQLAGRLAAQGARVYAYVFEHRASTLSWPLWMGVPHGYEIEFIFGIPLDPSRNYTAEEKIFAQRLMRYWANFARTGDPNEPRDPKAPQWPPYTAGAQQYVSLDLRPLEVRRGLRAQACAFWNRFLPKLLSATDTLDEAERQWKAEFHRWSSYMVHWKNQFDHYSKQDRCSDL
Data set [7] concerns the target Chymotrypsinogen A (Bos taurus) (UniProt P00766). Put plainly: Inactivation of bovine alpha-chymotrypsin assessed as Ki/KI ratio at pH 7.5.
Data set [8] is described as follows: Therapeutic index, ratio of IC50 for human H9 cells to EC50 for HIV-1 3B in human H9 cells. The format is toxicity, cell-based. To be noted: read-out: Ratio IC50/EC50.
Data set [9] relates to Human immunodeficiency virus 1. In words: Antiviral activity against HIV-1 3B in human H9 cells incubated for 4 days by ELISA. The format is functional, organism-based. To be noted: Human immunodeficiency virus 1, 3B, H9, 96 h.
Data set [10] addresses 5-hydroxytryptamine receptor 1B (Rattus norvegicus, UniProt P28564). Put plainly: Binding affinity to rat 5-HT1B.
The nature of data set [11]: Binding affinity to bovine 5-HT1B. More on the design: species or system Bos taurus.
Data set [12] is described as follows: Selectivity ratio of Ki for bovine 5-HT1B to rat 5-HT1B.
Data set [13] in a line: Inhibition of ECE (unknown origin). More on the design: species or system Homo sapiens.
For data set [14], the target named is Chymotrypsinogen A (Bos taurus) (UniProt P00766). Put plainly: Inactivation of bovine alpha-chymotrypsin assessed as Ki/KI ratio.
The subject of a further data set is Leishmania major. In words: Antileishmanial activity against Leishmania major promastigotes assessed as inhibition of [3H]thymidine uptake preincubated for 2 hrs followed by addition of [3H]thymidine measured after 18 hrs by scintillation counting. It counts as functional, organism-based.
Another data set deals with Planktothrix perornata. In words: Algicidal activity against Planktothrix perornata. It counts as functional, organism-based.
The test system of data set [15] is Selenastrum capricornutum. In words: Algicidal activity against Selenastrum capricornutum. The format is functional, organism-based.
In data set [16] the target is T1, Acetylcholinesterase (Electrophorus electricus, UniProt O42275). In words: Inhibition of electric eel AChE (type VI-S) using acetylthiocholine iodide as substrate preincubated for 15 mins followed by substrate addition by Ellman's method.
T1 sequence (O42275 whole entry): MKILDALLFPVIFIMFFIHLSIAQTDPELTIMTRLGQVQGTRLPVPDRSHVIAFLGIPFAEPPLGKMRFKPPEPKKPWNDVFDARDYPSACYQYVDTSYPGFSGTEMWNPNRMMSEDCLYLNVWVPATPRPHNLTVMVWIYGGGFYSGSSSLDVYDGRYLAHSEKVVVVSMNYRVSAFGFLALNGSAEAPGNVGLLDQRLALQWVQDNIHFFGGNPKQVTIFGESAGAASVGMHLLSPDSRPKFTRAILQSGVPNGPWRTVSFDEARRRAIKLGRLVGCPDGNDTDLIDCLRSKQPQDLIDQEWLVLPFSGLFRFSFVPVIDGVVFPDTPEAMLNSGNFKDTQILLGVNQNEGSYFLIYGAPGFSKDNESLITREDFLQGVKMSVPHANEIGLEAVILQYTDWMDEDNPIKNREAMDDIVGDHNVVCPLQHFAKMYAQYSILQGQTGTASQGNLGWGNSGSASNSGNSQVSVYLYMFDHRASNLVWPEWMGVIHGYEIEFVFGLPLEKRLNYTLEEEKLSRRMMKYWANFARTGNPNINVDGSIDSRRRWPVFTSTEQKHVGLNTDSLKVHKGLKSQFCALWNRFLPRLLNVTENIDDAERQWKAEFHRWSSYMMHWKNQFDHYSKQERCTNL
The target in data set [17] is T1, Acetylcholinesterase. In words: Competitive inhibition of electric eel acetyl cholinesterase measured for 3 mins by Ellman's method.

Structures are written as SMILES. pIC50, pKi: −log10 of the molar value. Values after ≈ are worked out from the molar mass of the structure shown. A value given as a limit tells only on which side of the number the result lay.

Here are results for 24 molecules from ChEMBL document CHEMBL5252530, “Biological importance of structurally diversified chromenes” (Eur J Med Chem, 2016).

Chain of 5-hydroxytryptamine receptor 1B (P28564 whole entry): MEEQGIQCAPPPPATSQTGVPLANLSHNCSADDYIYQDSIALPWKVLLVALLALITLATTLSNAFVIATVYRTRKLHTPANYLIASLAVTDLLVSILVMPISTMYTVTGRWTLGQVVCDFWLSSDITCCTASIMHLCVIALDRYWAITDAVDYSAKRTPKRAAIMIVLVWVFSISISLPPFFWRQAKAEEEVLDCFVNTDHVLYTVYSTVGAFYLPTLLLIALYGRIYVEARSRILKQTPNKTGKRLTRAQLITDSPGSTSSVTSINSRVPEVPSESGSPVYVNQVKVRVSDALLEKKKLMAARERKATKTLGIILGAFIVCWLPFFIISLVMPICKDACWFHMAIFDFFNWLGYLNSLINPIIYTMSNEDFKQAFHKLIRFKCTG

Consider `CCC(C)c1cc(=O)oc2c(C(=O)CC(C)CO)c(O)c(CC=C(C)C)c(O)c12` (stereo unspecified), for which the EC50 (with LNCaP; in the data set with Col2; in data set [1]; with KB [2]) was 11.1 µg/mL (≈ 27.6 µM) in each case.
Turning to `CCOC(=O)C1(CC)Oc2ccc3c(C)cc(=O)oc3c2O1` (stereo unspecified), in the data set on Rattus norvegicus, the Activity is recorded as 55%.
The pIC50 is the IC50 on a negative log10 scale, so that one unit is a factor of ten. Take `Cc1cccc2oc(=O)c3c(c12)O[C@H](C)[C@@]3(C)CC(=O)C1OC1(C)C` (stereo partly specified): the pIC50 in the data set on Plasmodium falciparum [3] and in the data set on Plasmodium falciparum [4] was less than 4.30 throughout.
By pKi is commonly meant the Ki on a negative log10 scale, so that one unit is a factor of ten. In turn, `CCCCCCC(C)(C)c1cc(O)c2c(c1)oc(=O)c1ccc(C)cc12` had a pKi at Cannabinoid receptor 2 of 8.51.
Broadly, the IC50 is the concentration that gives 50% inhibition. As to `C=C(C)C(O)Cc1c(O)c(C(=O)C(C)CC)c(O)c2c(-c3ccccc3)cc(=O)oc12` (stereo unspecified), the IC50 in the data set with KB [5] was determined as 4 µg/mL (≈ 9.47 µM).
For the molecule `COc1ccc2c(c1)c(CC(=O)O)c(C)n2C(=O)c1ccc(Cl)cc1` [INDOMETHACIN], the Activity with Rattus norvegicus is 47%.
Regarding `C=C(C)C(O)Cc1c(O)c(C(=O)C(C)CC)c(O)c2c(CCC)cc(=O)oc12` (stereo unspecified), the IC50 with KB [5] is 4 µg/mL (≈ 10.3 µM).
In the case of `CCN(Cc1ccccc1)Cc1ccc(-c2cc3cc(OC)c(OC)cc3oc2=O)cc1`, at Acetylcholinesterase [6], the pKi is 7.98.
Turning to `O=C(Oc1cccc(Cl)c1)c1cc2cc(CCl)ccc2oc1=O`, the Ratio in data set [7] is 7.6 10^5/M/s.
For the molecule `C=C(C)C(O)Cc1c(O)c(C(=O)C(C)C)c(O)c2c(-c3ccccc3)cc(=O)oc12` (stereo unspecified), in the data set with KB [5], the IC50 came to 4 µg/mL (≈ 9.79 µM).
On the same count and under the same terms, the result for `CC(C)CC(=O)c1c(O)cc(O)c2c(-c3ccccc3)cc(=O)oc12` [ISODISPAR B] reads 4 µg/mL (≈ 11.8 µM).
As to `CC(C)=CCC/C(C)=C/CC[C@@]1(C)C=Cc2c(cc(C)c(C(=O)O)c2O)O1` [DAURICHROMENIC ACID], in data set [8], the selectivity ratio was 3.71. In [9], the EC50 worked out at 5.67 µg/mL (≈ 15.3 µM).
For the molecule `C1=C(CN2CCOCC2)COc2c1cccc2OCC1COCCN1` (stereo unspecified), the pKi in data set [10] is 7.33; in data set [11], 6.20. In data set [12], the Ratio Ki stood at 13.
As to `COc1cc2cc(-c3ccc(CN(CCO)Cc4ccccc4)cc3)c(=O)oc2cc1OC`, at Acetylcholinesterase [6], the pKi was 7.98.
With `CC(C)=CCc1c(O)c(C(=O)CC(C)CO)c2oc(=O)cc(-c3ccccc3)c2c1O` (stereo unspecified), the EC50 (in the data set with LNCaP; in the data set with Col2; in [1]; in the data set on KB [2]) was 11.1 µg/mL (≈ 26.3 µM) throughout.
As for `CC1(C)C=Cc2c(ccc3c2O[C@H](O)[C@H]2c4ccc(O)cc4O[C@@H]32)O1`, in [13], the negative logarithm of the IC50 (pIC50) was 5.05.
For `O=C(Oc1cccc(Cl)n1)c1cc2cc(CCl)ccc2oc1=O`, the Ratio in data set [14] was 1.1 10^5/M/s.
`COc1cc2cc(-c3ccc(C[N+](C)(C)Cc4ccccc4)cc3)c(=O)oc2cc1OC`: the pKi on Acetylcholinesterase [6] was 7.98.
As to `Cc1cccc2oc(=O)c3c(c12)O[C@@H](C)[C@@]3(C)CC(=O)C1OC1(C)C` (stereo partly specified), the pIC50 with Leishmania major was 4.87; with Plasmodium falciparum [3], less than 4.30; in the data set on Plasmodium falciparum [4] it was less than 4.30.
Take `CC(C)CC(=O)N(C)CCc1ccc2c(c1)C=CC(C)(C)O2`: the results for the Activity (in the data set with Planktothrix perornata; in data set [15]) were 10 µM and 100 µM, respectively. The results for the negative logarithm of the IC50 (pIC50) (with Planktothrix perornata (Planktothrix perornata); in data set [15] (Selenastrum capricornutum)) were 5.64 and 4.90, respectively.
`CCCCCCC(C)(C)c1cc(O)c2c(c1)oc(=O)c1ccc(OC)cc12` gave a negative logarithm of the Ki (pKi) on Cannabinoid receptor 2 of 8.17.
Regarding `Cc1cc(=O)oc2c3c(ccc12)OC(C)(c1ccccc1)O3` (stereo unspecified), the Activity in the data set on Rattus norvegicus stood at 55%.
On to `COc1cc2cc(-c3ccc(CN(C)Cc4ccccc4)cc3)c(=O)oc2cc1OC`, for which the negative-log Ki (pKi) at Acetylcholinesterase [6] is 7.35.
At Acetylcholinesterase [16], `CC(C)=CCCC1(C)C=Cc2c(cc(O)c3c(=O)c4cccc(O)c4oc23)O1` (stereo unspecified) had a pIC50 of 5.07. Also, the negative-log Ki (pKi) at Acetylcholinesterase [16] is 5.46; at Acetylcholinesterase [17], 5.72.
